Assay [1] addresses SHP-2 enzyme (Met1-Leu525) (Homo sapiens (Human), UniProt Q06124). Briefly: SHP2 inhibition enzymatic assay. It is filed as biochemical. Particulars: 0.5 nM SHP-2 activated by 500 nM IRS1 peptide, 75 μM DiFMUP substrate; read-out: SHP2wt-IC50. In outline:
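Compounds were preincubated 30 min with 0.5 nM SHP-2 (Met1-Leu525) plus 500 nM IRS1 activating peptide (pH 7.2 HEPES, 5 mM DTT), then 75 μM DiFMUP substrate reacted 30 min at room temperature. After bpV quench, DiFMUP fluorescence gave % inhibition; four-parameter logistic fit yielded IC50.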

The subject of assay [2] is ERK phosphorylation in KYSE-520 cells. Briefly: Phospho-ERK cellular assay. Particulars: KYSE-520 cells, 2 h at 37° C., phospho-ERK1/2 (Thr202/Tyr204) TR-FRET, read-out: PERK IC50. It is filed as cell-based. In outline:
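TR-FRET read-out of ERK1/2 Thr202/Tyr204 phosphorylation was taken after overnight antibody incubation at room temperature. Before that, KYSE-520 cells were treated 2 h at 37 °C with compound dilutions and lysed 30 min. Percent inhibition relative to vehicle and cell-free wells was fitted four-parametrically to give IC50.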
Background: Time-resolved FRET reads energy transfer from a long-lived donor to a nearby acceptor.

Read-outs that look alike come from different tables or passages of the source.

This note sets out measurements from patent US20240109900A1, “AZABICYCLIC SHP2 INHIBITORS” (IRBM S.P.A., priority 2021, published 2024).

Sequence of SHP-2 enzyme (Met1-Leu525) (Q06124 1-525): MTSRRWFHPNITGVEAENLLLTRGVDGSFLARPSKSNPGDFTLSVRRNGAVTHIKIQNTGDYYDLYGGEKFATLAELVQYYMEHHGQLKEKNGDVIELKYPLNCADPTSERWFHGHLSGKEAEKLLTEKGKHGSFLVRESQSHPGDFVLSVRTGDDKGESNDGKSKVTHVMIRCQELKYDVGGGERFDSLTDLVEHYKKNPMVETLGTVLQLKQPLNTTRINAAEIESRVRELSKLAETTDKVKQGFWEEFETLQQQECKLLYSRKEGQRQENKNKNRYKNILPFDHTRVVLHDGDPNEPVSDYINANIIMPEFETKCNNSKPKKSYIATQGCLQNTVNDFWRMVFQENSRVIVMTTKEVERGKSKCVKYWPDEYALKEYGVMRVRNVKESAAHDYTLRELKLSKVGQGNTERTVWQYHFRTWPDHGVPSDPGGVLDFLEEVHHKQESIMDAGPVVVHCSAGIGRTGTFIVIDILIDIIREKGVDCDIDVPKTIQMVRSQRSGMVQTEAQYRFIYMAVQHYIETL

On to `Cn1cc(C2(CN)C3CCN(c4cnc5c(-c6cccc(Cl)c6Cl)n[nH]c5n4)CC32)nn1` (centres unmarked) [Example 13, (3-(3-(2,3-dichlorophenyl)-1H-pyrazolo[3,4-b]pyrazin-6-yl)-7-(1-methyl-1H-1,2,3-triazol-4-yl)-3-azabicyclo[4.1.0]heptan-7-yl)methanamine], for which the concentration for half-maximal inhibition (IC50) – broadly, the concentration needed to halve the response being measured – is under 500 nM in assay [1] and under 1000 nM in assay [2] (Homo sapiens, KYSE-520, 2 h).
The corresponding values for `NC[C@]1(c2ccccc2F)[C@@H]2CCN(c3cnc4c(-c5ccc(-c6cc(F)cc(F)c6)cc5Cl)n[nH]c4n3)C[C@@H]21` [Example 323, ((1S,6R,7R)-3-(3-(3-chloro-3′,5′-difluoro-[1,1′-biphenyl]-4-yl)-1H-pyrazolo[3,4-b]pyrazin-6-yl)-7-(2-fluorophenyl)-3-azabicyclo[4.1.0]heptan-7-yl)methanamine] are under 500 nM and under 1000 nM.
In the same order, the values of `COCc1ccc(-c2n[nH]c3nc(N4CC[C@@H]5[C@H](C4)[C@@]5(CN)c4cc(C)on4)cnc23)c2cccnc12` [Example 128, ((1S,6R,7S)-3-(3-(8-(methoxymethyl)quinolin-5-yl)-1H-pyrazolo[3,4-b]pyrazin-6-yl)-7-(5-methylisoxazol-3-yl)-3-azabicyclo[4.1.0]heptan-7-yl)methanamine] are under 500 nM and under 1000 nM.
The corresponding values for `Cn1cc2c(Cl)c(-c3n[nH]c4nc(N5CCC6C(C5)C6(CN)c5ccc(F)cn5)cnc34)ccc2n1` (centres unmarked) [Example 50, (3-(3-(4-chloro-2-methyl-2H-indazol-5-yl)-1H-pyrazolo[3,4-b]pyrazin-6-yl)-7-(5-fluoropyridin-2-yl)-3-azabicyclo[4.1.0]heptan-7-yl)methanamine] are under 500 nM and under 1000 nM.
Turning to `Cc1c(-c2n[nH]c3nc(N4CC[C@@H]5[C@H](C4)[C@@]5(CN)c4ccccc4F)cnc23)ccc2ncccc12` [Example 172, ((1S,6R,7R)-7-(2-fluorophenyl)-3-(3-(5-methylquinolin-6-yl)-1H-pyrazolo[3,4-b]pyrazin-6-yl)-3-azabicyclo[4.1.0]heptan-7-yl)methanamine], the half-maximal inhibitory concentration (IC50) in assay [1] is under 500 nM; in assay [2] (Homo sapiens, KYSE-520, 2 h), under 1000 nM.
In the same order, the values of `NC[C@]1(c2ccccc2F)[C@@H]2CCN(c3cnc4c(-c5ccc6cc[nH]c(=O)c6c5)n[nH]c4n3)C[C@@H]21` [Example 294, 7-(6-((1S,6R,7R)-7-(aminomethyl)-7-(2-fluorophenyl)-3-azabicyclo[4.1.0]heptan-3-yl)-1H-pyrazolo[3,4-b]pyrazin-3-yl)isoquinolin-1(2H)-one] are under 500 nM and under 1000 nM.
`Cn1ccc2c(-c3n[nH]c4nc(N5CC[C@@H]6[C@H](C5)[C@@]6(CN)c5ccccc5F)cnc34)cccc2c1=O` [Example 274, 5-(6-((1S,6R,7R)-7-(aminomethyl)-7-(2-fluorophenyl)-3-azabicyclo[4.1.0]heptan-3-yl)-1H-pyrazolo[3,4-b]pyrazin-3-yl)-2-methylisoquinolin-1(2H)-one]: the concentration for half-maximal inhibition (IC50) was under 500 nM in assay [1] and under 1000 nM in assay [2] (Homo sapiens, KYSE-520, 2 h).
In the same order, the values of `Cc1nc2c(Cl)c(-c3n[nH]c4nc(N5CC[C@@H]6[C@H](C5)[C@@]6(CN)c5ccccc5F)cnc34)ccc2n1C` [Example 349, ((1S,6R,7R)-3-(3-(4-chloro-1,2-dimethyl-1H-benzo[d]imidazol-5-yl)-1H-pyrazolo[3,4-b]pyrazin-6-yl)-7-(2-fluorophenyl)-3-azabicyclo[4.1.0]heptan-7-yl)methanamine] are under 500 nM and under 1000 nM.
The corresponding values for `COCCn1cc2c(Cl)c(-c3n[nH]c4nc(N5CC[C@@H]6[C@H](C5)[C@@]6(CN)c5ccccc5F)cnc34)ccc2n1` [Example 393, ((1S,6R,7R)-3-(3-(4-chloro-2-(2-methoxyethyl)-2H-indazol-5-yl)-1H-pyrazolo[3,4-b]pyrazin-6-yl)-7-(2-fluorophenyl)-3-azabicyclo[4.1.0]heptan-7-yl)methanamine] are under 500 nM and under 1000 nM.
Take `CN(C)C(=O)Cn1ncc2c(Cl)c(-c3n[nH]c4nc(N5CC[C@@H]6[C@H](C5)[C@@]6(CN)c5ccccc5F)cnc34)ccc21` [Example 432]: the half-inhibitory concentration (IC50) in assay [1] is under 500 nM; in assay [2], under 1000 nM.
Consider `Cc1nc2ccc(-c3n[nH]c4nc(N5C[C@@H]6[C@H](C5)[C@@]6(CN)c5ccccn5)cnc34)c(Cl)c2s1` [Example 492, ((1R,5S,6r)-3-(3-(7-chloro-2-methylbenzo[d]thiazol-6-yl)-1H-pyrazolo[3,4-b]pyrazin-6-yl)-6-(pyridin-2-yl)-3-azabicyclo[3.1.0]hexan-6-yl)methanamine], for which the IC50 is under 500 nM in assay [1] and under 1000 nM in assay [2] (Homo sapiens, KYSE-520, 2 h).
In the same order, the values of `NC[C@]1(c2ccccc2F)[C@@H]2CCN(c3cnc4c(-c5ccc(CO)c6ncccc56)n[nH]c4n3)C[C@@H]21` [Example 159, (5-(6-((1S,6R,7R)-7-(aminomethyl)-7-(2-fluorophenyl)-3-azabicyclo[4.1.0]heptan-3-yl)-1H-pyrazolo[3,4-b]pyrazin-3-yl)quinolin-8-yl)methanol] are under 500 nM and under 1000 nM.
In the case of `NCC1(c2ccsc2)C2CCN(c3cnc4c(-c5cccc(Cl)c5Cl)n[nH]c4n3)CC21` (centres unmarked) [Example 94, (3-(3-(2,3-dichlorophenyl)-1H-pyrazolo[3,4-b]pyrazin-6-yl)-7-(thiophen-3-yl)-3-azabicyclo [4.1.0]heptan-7-yl)methanamine], the half-maximal inhibitory concentration (IC50) was under 500 nM in assay [1] and under 1000 nM in assay [2] (Homo sapiens, KYSE-520, 2 h).
The corresponding values for `COc1cccc2c(-c3n[nH]c4nc(N5CC[C@@H]6[C@H](C5)[C@@]6(CN)c5cc(C)on5)cnc34)ccnc12` [Example 125, ((1S,6R,7S)-3-(3-(8-methoxyquinolin-4-yl)-1H-pyrazolo[3,4-b]pyrazin-6-yl)-7-(5-methylisoxazol-3-yl)-3-azabicyclo[4.1.0]heptan-7-yl)methanamine] are under 500 nM and under 1000 nM.
In the same order, the values of `Cc1nnc([C@@]2(CN)[C@@H]3CN(c4cnc5c(-c6ccc7nn(C)cc7c6Cl)n[nH]c5n4)C[C@@H]32)s1` [Example 501, ((1R,5S,6r)-3-(3-(4-chloro-2-methyl-2H-indazol-5-yl)-1H-pyrazolo[3,4-b]pyrazin-6-yl)-6-(5-methyl-1,3,4-thiadiazol-2-yl)-3-azabicyclo[3.1.0]hexan-6-yl)methanamine] are under 500 nM and under 1000 nM.
The corresponding values for `NC[C@]1(c2ccccc2F)[C@@H]2CCN(c3cnc4c(-c5ccc(C6CC6)c6ncccc56)n[nH]c4n3)C[C@@H]21` [Example 139, ((1S,6R,7R)-3-(3-(8-cyclopropylquinolin-5-yl)-1H-pyrazolo[3,4-b]pyrazin-6-yl)-7-(2-fluorophenyl)-3-azabicyclo[4.1.0]heptan-7-yl)methanamine] are under 500 nM and under 1000 nM.
With `NC[C@]1(c2ccccc2F)[C@@H]2CCN(c3cnc4c(-c5ccc6c(=O)[nH]ccc6c5)n[nH]c4n3)C[C@@H]21` [Example 240, 6-(6-((1S,6R,7R)-7-(aminomethyl)-7-(2-fluorophenyl)-3-azabicyclo[4.1.0]heptan-3-yl)-1H-pyrazolo[3,4-b]pyrazin-3-yl)isoquinolin-1(2H)-one], the half-maximal inhibitory concentration (IC50) in assay [1] was under 500 nM; in assay [2] (Homo sapiens, KYSE-520, 2 h) it was under 1000 nM.
As for `NC[C@]1(c2ccccc2F)[C@@H]2CCN(c3cnc4c(-c5ccc6c(c5Cl)NC(=O)CO6)n[nH]c4n3)C[C@@H]21` [Example 207, 6-(6-((1S,6R,7R)-7-(aminomethyl)-7-(2-fluorophenyl)-3-azabicyclo[4.1.0]heptan-3-yl)-1H-pyrazolo[3,4-b]pyrazin-3-yl)-5-chloro-2H-benzo[b][1,4]oxazin-3(4H)-one], the IC50 in assay [1] was under 500 nM; in assay [2] (Homo sapiens, KYSE-520, 2 h), under 1000 nM.
In the same order, the values of `Cc1csc(C2(CN)C3CCN(c4nc5[nH]nc(-c6cccc(Cl)c6Cl)c5nc4CO)CC32)n1` (centres unmarked) [Example 102, (6-(7-(aminomethyl)-7-(4-methylthiazol-2-yl)-3-azabicyclo[4.1.0]heptan-3-yl)-3-(2,3-dichlorophenyl)-1H-pyrazolo[3,4-b]pyrazin-5-yl)methanol] are under 500 nM and under 1000 nM.
In the case of `NC[C@]1(c2ccccc2F)[C@@H]2CCN(c3cnc(Sc4ccnc(N)c4Cl)cn3)C[C@@H]21` [Example 401, 4-((5-((1S,6R,7R)-7-(aminomethyl)-7-(2-fluorophenyl)-3-azabicyclo[4.1.0]heptan-3-yl)pyrazin-2-yl)thio)-3-chloropyridin-2-amine], the IC50 in assay [1] is under 500 nM; in assay [2] (Homo sapiens, KYSE-520, 2 h), under 1000 nM.
For the compound `Cn1c(=O)n(C)c2cc(-c3n[nH]c4nc(N5CC[C@@H]6[C@H](C5)[C@@]6(CN)c5ccccc5F)cnc34)ccc21` [Example 232, 5-(6-((1S,6R,7R)-7-(aminomethyl)-7-(2-fluorophenyl)-3-azabicyclo[4.1.0]heptan-3-yl)-1H-pyrazolo[3,4-b]pyrazin-3-yl)-1,3-dimethyl-1,3-dihydro-2H-benzo[d]imidazol-2-one], the IC50 was under 500 nM in assay [1] and under 1000 nM in assay [2] (Homo sapiens, KYSE-520, 2 h).
In the same order, the values of `NC[C@]1(c2ccccc2F)[C@@H]2CCN(c3cnc4c(-c5ccc6n[nH]cc6c5Cl)n[nH]c4n3)C[C@@H]21` [Example 243, ((1S,6R,7R)-3-(3-(4-chloro-2H-indazol-5-yl)-1H-pyrazolo[3,4-b]pyrazin-6-yl)-7-(2-fluorophenyl)-3-azabicyclo[4.1.0]heptan-7-yl)methanamine] are under 500 nM and under 1000 nM.
